# Laboratory results taken from paper PMC8155176, “Reversible modulation of circadian time with chronophotopharmacology” (Nature Communications, 2021).
# Entries after “also recorded” stand apart in the source; their conditions may differ.
# Columns and labels:
# U2OS cells = assay: Circadian period assay in Bmal1-dLuc U2OS reporter cells; assay type: cell-based, human
# Procedure: Next, we tested if the observed light-dependent CKIα inhibition translates into photomodulation of the circadian period in human U2OS cells (Fig. 2d). The Bmal1-dLuc reporter cell line contains the coding sequence of destabilized luciferase driven by the Bmal1 gene promoter sequence. The cell culture medium for luminescence recording includes a high concentration of luciferin (0.2 mM), a substrate for luciferase, which strongly absorbs UV light (Supplementary Fig. 30). […] As the circadian period change is directly correlated with the potency and concentration of the inhibitor[10], the cells were treated with photoswitchable modulators using a broad range of concentrations.
# In comparison to the kinase assay, the direct use of UV light for preventing a thermal back-isomerization of the cis-isomer was not feasible due to the cell-damaging effect and the presence of luciferin in the medium. Therefore, the modulators were kept in the dark or photo-isomerized in DMSO prior to the addition, without further irradiation during the circadian assay. All three modulators lengthened the period in the U2OS cells both in the dark and upon irradiation (Fig. 2d). […] Altogether, based on the efficient generation of the cis-isomer under irradiation, retained potency and promising light-modulation of CKIα inhibition, the meta-substituted modulator 4 was identified as representing lead substitution pattern for further investigation.
# Stable U2OS reporter cells harboring Bmal1-dLuc reporter were suspended in phenol red-free culture medium [DMEM (D2902, Sigma) supplemented with 10% fetal bovine serum, 3.5 mg/mL D-glucose, 3.7 mg/mL sodium bicarbonate, 0.29 mg/mL L-glutamine, 100 units/mL penicillin, and 100 µg/mL streptomycin] and plated onto a white, solid-bottom 384-well plates at 30 µL (3000 cells) per well. After 2 days, 40 µL of phenol red-free explant medium [DMEM (D2902, Sigma) supplemented with 2% B27 (Gibco), 10 mM HEPES, 3.5 mg/mL D-glucose, 0.38 mg/mL sodium bicarbonate, 0.29 mg/mL L-glutamine, 100 units/mL penicillin, 100 µg/mL streptomycin, and 0.2 mM luciferin; pH 7.2] was dispensed into each well, followed by the application of 0.5 μL of compounds (dissolved in DMSO; final 0.7% DMSO; pre-irradiated with UV for 60 min, white LED for 10 min, and/or green LED for 60 min when indicated). The plate was covered with an optically clear film, and subjected to irradiation with 530 nm LED lamp (3 × 550 mW, λmax = 530 nm, FWHM 36 nm, Sahlmann Photochemical Solutions) or 400 nm LED lamp (3 × 1000 mW, λmax = 400 nm, FWHM 11.9 nm, Sahlmann Photochemical Solutions) from 12 cm distance for 30 min. Compound handling and irradiation were conducted in a dark room under red lamp illumination. Luminescence was recorded every 100 min in a microplate reader, Infinite M200Pro (Tecan). For the phase control experiments, cellular light irradiation was performed in a dark 32 °C room and luminescence was recorded in a microplate reader Synergy H1 (BioTek) placed in the same room, to avoid possible effect of transient temperature change on the phase. Circadian period and phase were determined from luminescence rhythms by a curve fitting program MultiCycle (Actimetrics). Data from the first day was excluded from analysis, because of transient changes in luminescence upon medium change. Statistical significance was evaluated using two-way analysis of variance (ANOVA) followed by a Sidak’s multiple comparisons test or one-way ANOVA followed by a Tukey’s multiple comparisons test using Prism software (GraphPad Software).
# [1] = Chemical stability under dark and irradiation conditions followed by LCMS; assay type: physicochemical; conditions: 40 µM in kinase assay buffer or cell culture medium, dark, 365 nm 3 h, 400 nm 30 min
# Procedure: LCMS traces of stability studies
# Supplementary Figure 8. Chemical stability of compound 3 under dark and irradiation conditions followed by LCMS. All the samples were prepared as 40 µM solution in buffer or cell culture medium. ‘Buffer’ and ‘medium’ samples were injected immediately upon dissolving compound 3, ‘buffer_3h_dark’ was injected after 3 h of keeping the solution in dark, ‘buffer_3h_365nm’ after irradiation of the sample for 3 h with UV light in kinase assay buffer, and ‘medium_30min_400nm’ after 30 min of irradiation with 400 nm in cell culture medium. The trans-isomer was followed at the retention time of 10.41-10.47 min and the cis-isomer at the retention time of 8.84-8.90 min. Mass spectra of both isomers in different […]
# (1 picture or pasted object on this page, not shown here)
Structure (SMILES),effect of UV light irradiation on period lengthening (U2OS cells; UV (365 nm) pre-irradiated),recovery of biological activity upon back-isomerization with white light (U2OS cells; UV light followed by white light),period lengthening effect under dark conditions (U2OS cells; dark),chemical stability (reduction or oxidation of the azo group) [1],"period change, first 3 days, kept in dark (U2OS cells; 8 μM (Fig. 5b)) [h]","period lengthening, dark treatment of green-irradiated cells, additional 3 days (U2OS cells; 8 μM (Fig. 5b)) [h]","period lengthening, violet light treatment of dark-kept cells (U2OS cells; 8 μM (Fig. 5b)) [h]","period lengthening after violet light on the third day of green-irradiated cells (U2OS cells; 8 μM, 400 nm in situ (Fig. 5b)) [h]","period lengthening, three additional days after green light irradiation (U2OS cells; 8 μM, green light 530 nm in cellulo after 3 days (Fig. 5a)) [h]","period change after photoisomerization with green light in vitro (U2OS cells; 8 µM, green light 530 nm pre-incubation (Fig. 4e)) [h]","period change, first 3 days, green light-irradiated cells (U2OS cells; 8 μM, green light in cellulo at start (Fig. 5b)) [h]","period lengthening after green light in vitro and violet light in cellulo (U2OS cells; 8 µM, in situ back-photoisomerization 400 nm (Fig. 4e)) [h]","period lengthening vs DMSO, three additional days, non-irradiated (U2OS cells; 8 μM, kept dark (Fig. 5a)) [h]","period lengthening, trans-isomer (dark) (U2OS cells; 8 µM, thermally adapted, dark (Fig. 4e)) [h]","period change, first 3 days in the dark (U2OS cells; 8 μM, trans-9 applied (Fig. 5a)) [h]",effect of violet light only on dark samples on the circadian period activity (U2OS cells; violet light 400 nm in cellulo (Fig. 4e))
Cc1nn(C)c(C)c1/N=N/c1cccc(CNc2ncnc3c2ncn3C(C)C)c1 [Compound 8],suppressed by UV light irradiation,full recovery,strong period lengthening effect,Products of reduction or oxidation were not observed; also recorded: no observable reduction or oxidation,–,–,–,–,–,–,–,–,–,–,–,–
CC(C)n1cnc2c(NCc3ccc(F)c(/N=N/c4c(F)cccc4F)c3F)ncnc21 [Compound 9],–,–,–,Products of reduction or oxidation were not,7,5,8,8,2,1,2,4,10,4,5,no effect
